{"source": "patent US11725005B2", "about": "“Compositions and methods for inhibiting kinases” (Inhibikase Therapeutics, Inc., priority 2015, dated 2023)", "key": {"Cos 7 cells": {"system": "Cos 7 cells", "assay": "Cell cytotoxicity CC50 and Therapeutic Index (CC50:EC50)", "conditions": "drug titration between 2 nM and 20 μM"}}, "data": [{"compound": "Cc1ccc(NC(=O)c2ccc(CN3CCN(C)CC3)cc2)cc1Nc1nccc(-c2cncc(-c3nncs3)c2)n1", "note": "[Compound 8250]", "values": [{"measurement": "Percent inhibition PDGFRa", "setting": "PDGFRa", "value": 100}, {"measurement": "Cell cytotoxicity: no toxicity up to", "setting": "Cos 7 cells", "value": "> 20", "unit": "µM"}]}, {"compound": "Cc1cc(-c2cncc(-c3ccnc(Nc4cc(NC(=O)c5ccc(CN6CCN(C)CC6)cc5)ccc4C)n3)c2)sn1", "note": "[Compound 8190]", "values": [{"measurement": "Percent inhibition PDGFRa", "setting": "PDGFRa", "value": 100}, {"measurement": "Cell cytotoxicity: no toxicity up to", "setting": "Cos 7 cells", "value": "> 20", "unit": "µM"}]}, {"compound": "Cc1ccnc(-c2cncc(-c3ccnc(Nc4cc(NC(=O)c5ccc(CN6CCN(C)CC6)cc5)ccc4C)n3)c2)c1", "note": "[Compound 830]", "values": [{"measurement": "Percent inhibition PDGFRa", "setting": "PDGFRa", "value": 100}, {"measurement": "Cell cytotoxicity: no toxicity up to", "setting": "Cos 7 cells", "value": "> 20", "unit": "µM"}]}, {"compound": "Cc1ccc(NC(=O)c2ccc(CN3CCN(C)CC3)cc2)cc1Nc1nccc(-c2cncc(-c3oncc3C)c2)n1", "note": "[Compound 809]", "values": [{"measurement": "Cell cytotoxicity: no toxicity up to", "setting": "Cos 7 cells", "value": "> 20", "unit": "µM"}]}, {"compound": "Cc1cnc(-c2cncc(-c3ccnc(Nc4cc(NC(=O)c5ccc(CN6CCN(C)CC6)cc5)ccc4C)n3)c2)s1", "note": "[Compound 8280]", "values": [{"measurement": "Percent inhibition PDGFRa", "setting": "PDGFRa", "value": 100}, {"measurement": "Cell cytotoxicity: no toxicity up to", "setting": "Cos 7 cells", "value": "> 20", "unit": "µM"}]}, {"compound": "Cc1csc(-c2cncc(-c3ccnc(Nc4cc(NC(=O)c5ccc(CN6CCN(C)CC6)cc5)ccc4C)n3)c2)n1", "note": "[Compound 8290]", "values": [{"measurement": "Percent inhibition PDGFRa", "setting": "PDGFRa", "value": 100}]}, {"compound": "Cc1ccc(NC(=O)c2ccc(CN3CCN(C)CC3)cc2)cc1Nc1nccc(-c2cncc(-c3nccs3)c2)n1", "note": "[Compound 8270]", "values": [{"measurement": "Cell cytotoxicity: no toxicity up to", "setting": "Cos 7 cells", "value": "> 20", "unit": "µM"}]}, {"compound": "Cc1ccc(NC(=O)c2ccc(CN3CCN(C)CC3)cc2)cc1Nc1nccc(-c2cncc(-c3ccn(C)n3)c2)n1", "note": "[Compound 832]", "values": [{"measurement": "Percent inhibition PDGFRa", "setting": "PDGFRa", "value": 100}, {"measurement": "Cell cytotoxicity: no toxicity up to", "setting": "Cos 7 cells", "value": "> 20", "unit": "µM"}]}]}
